Reference: article PMC11837686, “γ-Secretase modulator resistance of an aggressive Alzheimer-causing presenilin mutant can be overcome in the heterozygous patient state by a set of advanced compounds” (Alzheimer's Research & Therapy, 2025)
Values joined by “and” are separate entries in the source; they are usually repeats but may differ in a detail not shown here. Identical values can stand only once. “Also recorded” adds a separate entry of the source. Like-named read-outs stand apart in the source and are kept apart here.

Legend:
[1] = target: T1, γ-secretase in homozygous (L166P/L166P) PS1 L166P KI MEF cells (Mus musculus, UniProt P49769+Q61144, L166P); assay: Secreted Aβ species by ELISA (IBL), homozygous PS1 L166P KI MEF cells; conditions: GSM-1 2.5 µM, RO-02 500 nM, one range printed for both compounds, measurable in half of the samples
From the text: Immortalised embryonic fibroblast cells from mice expressing human APP and either hetero- or homozygously knocked-in PS1 L166P [36] were generated as follows. For the production of mouse embryonic fibroblasts (MEF), all mice interbred were homozygous APP YAC transgenic mice. Primary MEFs were isolated from 14 days (E14) post-conception mouse embryos from the crossing of APP YAC × PSEN1 L166P (-/-) with APP YAC × PSEN1 L166P (-/-) mice to establish WT/WT MEF lines as well as APP YAC × PSEN1 L166P ( +/-) with APP YAC × PSEN1 L166P (+ / +) mice to establish WT/L166P and L166P/L166P MEF lines. […] The tissue was then triturated 5 times with a 1 ml pipet. […]
(§2) Possible effects of compound treatment to cell viability were recorded using the CytoTox-Glo cell viability assay (Promega) following the instructions of the manufacturer. […]
Immunoblot analysis of secreted Aβ was performed as described [52]. To analyse GSM dose-responses and determine IC50 values for Aβ42 inhibition, secreted Aβ species of HEK293/sw cells were analysed by sandwich immunoassay (MSD) using SULFO-tagged C-terminal specific antibodies to Aβ37, Aβ38, Aβ40 and Aβ42 as described [25] or, in case of H4/sw cells by an Aβ42 AlphaLISA immunoassay kit according to the instructions of the supplier (PerkinElmer) as described [38]. […]

[2] = target: γ-secretase (Aβ42) in H4/sw cell line (Homo sapiens, UniProt P49768+P49810); assay: Aβ42 AlphaLISA dose–response in H4/sw cells
Experimental: (§3) After three days of incubation, the medium was harvested, centrifuged and the supernatant was used for Aβ measurements by immunoassays.
(§4) To analyse GSM dose-responses and determine IC50 values for Aβ42 inhibition, secreted Aβ species of HEK293/sw cells were analysed by sandwich immunoassay (MSD) using SULFO-tagged C-terminal specific antibodies to Aβ37, Aβ38, Aβ40 and Aβ42 as described [25] or, in case of H4/sw cells by an Aβ42 AlphaLISA immunoassay kit according to the instructions of the supplier (PerkinElmer) as described [38]. Notch1 cleavage reporter assay was performed as described [38].
(§5) (A) The Aβ42-lowering effects of the GSMs used in this study were additionally characterised in dose-response curves on the H4/sw cell line, measuring Aβ42 levels after over-night incubations with an Aβ42-AlphaLisa. Effects of compounds on Notch1 processing were recorded using a Notch1 reporter assay. […] Means ± SEM of 4–7 independent experiments with 2 technical replicates each are shown. (B) IC50 values for Aβ42 calculated from the experiments in (A).

[3] = target: T2, γ-secretase in WT (WT/WT) MEF cells (Mus musculus, UniProt P49769+Q61144); assay: Aβ species by Tris-Bicine urea SDS-PAGE/immunoblot, WT/WT MEF cells; conditions: RO-02 and RO7019009 500 nM, BPN-15606 360 nM; for Aβ40 (gel): WT MEF (genotype not given), RO5254601 2.5 µM; for Short species Aβ37 and Aβ38 (gel): WT MEF
[4] = system: γ-secretase in heterozygous (WT/L166P) PS1 L166P KI MEF cells; assay: Aβ species by Tris-Bicine urea SDS-PAGE/immunoblot, heterozygous PS1 L166P KI MEF cells; conditions: for Aβ40 (gel): heterozygous KI MEF (genotype not given), RO5254601 2.5 µM; for Aβ40 (gel) / Short species Aβ37 and Aβ38 (gel): RO-02 and RO7019009 500 nM, BPN-15606 360 nM
PS1 and PS2 NTF and CTF = assay: Photoaffinity labeling with RO6874585 and competition, HEK293 membrane fractions; assay type: binding, human; conditions: for Competition of RO6874585 crosslinking to presenilin: 100x excess of competitor
Experimental: (§1) Membrane fractions of HEK293 or MEF cells were incubated with RO6874585 in the presence or absence of other GSMs used as competitor compounds as described previously. In brief, after photoactivation, samples were solubilised using SDS-containing buffer and the crosslinked proteins were pulled down with streptavidin-sepharose. Thereafter, samples were analysed by immunoblotting.

[5] = target: T3, endogenous γ-secretase in HEK293/sw cells (Homo sapiens, UniProt P49768+P49810); parameters: endogenous γ-secretase in HEK293/sw cells; endogenous in cells; host or cells: HEK293/sw (HEK293 stably expressing APPsw); conditions: read-out: IC50 (Aβ42); cited from earlier work
[6] = target: T2, γ-secretase in WT (WT/WT) MEF cells; assay: Secreted Aβ species by ELISA (IBL), WT/WT MEF cells; conditions: for Secreted Aβ38: RO7019009 500 nM
From the text: Immortalised embryonic fibroblast cells from mice expressing human APP and either hetero- or homozygously knocked-in PS1 L166P [36] were generated as follows. For the production of mouse embryonic fibroblasts (MEF), all mice interbred were homozygous APP YAC transgenic mice. Primary MEFs were isolated from 14 days (E14) post-conception mouse embryos from the crossing of APP YAC × PSEN1 L166P (-/-) with APP YAC × PSEN1 L166P (-/-) mice to establish WT/WT MEF lines as well as APP YAC × PSEN1 L166P ( +/-) with APP YAC × PSEN1 L166P (+ / +) mice to establish WT/L166P and L166P/L166P MEF lines. […] The tissue was then triturated 5 times with a 1 ml pipet. Trypsin was inactivated by adding 25 ml of medium (DMEM with 25 mM glucose, 10% FBS, 100 U/ml penicillin, 100 μg/ml streptomycin, 0.25 μg/ml amphotericin B, 6 mM glutamine and 1.5 mM pyruvate). The cell suspension was passed through a cell strainer and centrifuged for 15 min at 200 g. The cell pellet was resuspended in fresh media and plated. After 24 h, media was changed again to eliminate dead cells and debris. To obtain immortalised MEF lines, primary cells at passage 2–3 were transfected (FuGENE6, Promega) with a plasmid containing the SV40 T antigen cDNA. Immortalised cells were selected from individual colonies and maintained in media containing 500 μg/ml of geneticin (G418). Cells were kept at 37 °C with 5% CO2 in a humidified incubator. MEFs from passage 10 + were used for all the experiments and cultured in DMEM supplemented with 10% FCS and G418 (200 µg/ml). […]
as §2
Immunoblot analysis of secreted Aβ was performed as described [52]. To analyse GSM dose-responses and determine IC50 values for Aβ42 inhibition, secreted Aβ species of HEK293/sw cells were analysed by sandwich immunoassay (MSD) using SULFO-tagged C-terminal specific antibodies to Aβ37, Aβ38, Aβ40 and Aβ42 as described [25] or, in case of H4/sw cells by an Aβ42 AlphaLISA immunoassay kit according to the instructions of the supplier (PerkinElmer) as described [38]. […] GSM effects on secreted Aβ species in conditioned medium of MEF KI cells or iPSC-derived neurons were either quantified by ELISA using end-specific C-terminal antibodies to Aβ38, Aβ40, Aβ42 and Aβ43 obtained from IBL [16, 53] or MSD sandwich-immunoassay (Aβ37, see above). Total Aβ in conditioned medium of iPSC-derived neurons were measured using MSD sandwich-immunoassay using anti-Aβ antibodies 2D8 (biotinylated, capture) and 4G8 (detection) as described previously [54]. […] Protein bands from immunoblots were quantified using the LAS-4000 image reader (Fujifilm Life Science) and Multi-Gauge V3.0 software for analysis.

[7] = system: γ-secretase in heterozygous (WT/L166P) PS1 L166P KI MEF cells; assay: Secreted Aβ species by ELISA (IBL), heterozygous PS1 L166P KI MEF cells; conditions: for Aβ38 level in treated cells, % of total Aβ: GSM-1 2.5 µM, RO-02 500 nM, one range given for both compounds and both 'other genotypes'; for Combined pathogenic species (Aβ42 + Aβ43) / Secreted Aβ43: 24 h, RO7019009 500 nM, RO5254601 2.5 µM
From the text: Immortalised embryonic fibroblast cells from mice expressing human APP and either hetero- or homozygously knocked-in PS1 L166P [36] were generated as follows. For the production of mouse embryonic fibroblasts (MEF), all mice interbred were homozygous APP YAC transgenic mice. Primary MEFs were isolated from 14 days (E14) post-conception mouse embryos from the crossing of APP YAC × PSEN1 L166P (-/-) with APP YAC × PSEN1 L166P (-/-) mice to establish WT/WT MEF lines as well as APP YAC × PSEN1 L166P ( +/-) with APP YAC × PSEN1 L166P (+ / +) mice to establish WT/L166P and L166P/L166P MEF lines. […] The tissue was then triturated 5 times with a 1 ml pipet. Trypsin was inactivated by adding 25 ml of medium (DMEM with 25 mM glucose, 10% FBS, 100 U/ml penicillin, 100 μg/ml streptomycin, 0.25 μg/ml amphotericin B, 6 mM glutamine and 1.5 mM pyruvate). The cell suspension was passed through a cell strainer and centrifuged for 15 min at 200 g. The cell pellet was resuspended in fresh media and plated. After 24 h, media was changed again to eliminate dead cells and debris. To obtain immortalised MEF lines, primary cells at passage 2–3 were transfected (FuGENE6, Promega) with a plasmid containing the SV40 T antigen cDNA. Immortalised cells were selected from individual colonies and maintained in media containing 500 μg/ml of geneticin (G418). Cells were kept at 37 °C with 5% CO2 in a humidified incubator. MEFs from passage 10 + were used for all the experiments and cultured in DMEM supplemented with 10% FCS and G418 (200 µg/ml). […] H4 cells overexpressing APPsw (H4/sw) and HEK293-based Notch1 reporter cell lines were cultured as described [38].
(§6) Possible effects of compound treatment to cell viability were recorded using the CytoTox-Glo cell viability assay (Promega) following the instructions of the manufacturer. […] After three days of incubation, the medium was harvested, centrifuged and the supernatant was used for Aβ measurements by immunoassays.
Immunoblot analysis of secreted Aβ was performed as described [52]. To analyse GSM dose-responses and determine IC50 values for Aβ42 inhibition, secreted Aβ species of HEK293/sw cells were analysed by sandwich immunoassay (MSD) using SULFO-tagged C-terminal specific antibodies to Aβ37, Aβ38, Aβ40 and Aβ42 as described [25] or, in case of H4/sw cells by an Aβ42 AlphaLISA immunoassay kit according to the instructions of the supplier (PerkinElmer) as described [38]. Notch1 cleavage reporter assay was performed as described [38]. GSM effects on secreted Aβ species in conditioned medium of MEF KI cells or iPSC-derived neurons were either quantified by ELISA using end-specific C-terminal antibodies to Aβ38, Aβ40, Aβ42 and Aβ43 obtained from IBL [16, 53] or MSD sandwich-immunoassay (Aβ37, see above). Total Aβ in conditioned medium of iPSC-derived neurons were measured using MSD sandwich-immunoassay using anti-Aβ antibodies 2D8 (biotinylated, capture) and 4G8 (detection) as described previously [54]. […] Protein bands from immunoblots were quantified using the LAS-4000 image reader (Fujifilm Life Science) and Multi-Gauge V3.0 software for analysis.

brain-derived cell lines = system: brain-derived cell lines; parameters: method as in PMID 31762188; conditions: read-out: IC50 (Aβ42); cited from earlier work
[8] = target: T1, γ-secretase in homozygous (L166P/L166P) PS1 L166P KI MEF cells; assay: Aβ species by Tris-Bicine urea SDS-PAGE/immunoblot, homozygous PS1 L166P KI MEF cells
Experimental: as §6
(§7) To analyse GSM dose-responses and determine IC50 values for Aβ42 inhibition, secreted Aβ species of HEK293/sw cells were analysed by sandwich immunoassay (MSD) using SULFO-tagged C-terminal specific antibodies to Aβ37, Aβ38, Aβ40 and Aβ42 as described [25] or, in case of H4/sw cells by an Aβ42 AlphaLISA immunoassay kit according to the instructions of the supplier (PerkinElmer) as described [38]. […] GSM effects on secreted Aβ species in conditioned medium of MEF KI cells or iPSC-derived neurons were either quantified by ELISA using end-specific C-terminal antibodies to Aβ38, Aβ40, Aβ42 and Aβ43 obtained from IBL [16, 53] or MSD sandwich-immunoassay (Aβ37, see above). Total Aβ in conditioned medium of iPSC-derived neurons were measured using MSD sandwich-immunoassay using anti-Aβ antibodies 2D8 (biotinylated, capture) and 4G8 (detection) as described previously [54].

[9] = target: γ-secretase in homozygous L166P/L166P iPSC-derived cortical neurons (Homo sapiens, UniProt P49768+P49810, L166P); assay: Secreted Aβ species by immunoassays, homozygous PS1 L166P KI iPSC-derived neurons; conditions: 3 days
Experimental: as §6
(§8) Immunoblot analysis of secreted Aβ was performed as described [52]. To analyse GSM dose-responses and determine IC50 values for Aβ42 inhibition, secreted Aβ species of HEK293/sw cells were analysed by sandwich immunoassay (MSD) using SULFO-tagged C-terminal specific antibodies to Aβ37, Aβ38, Aβ40 and Aβ42 as described [25] or, in case of H4/sw cells by an Aβ42 AlphaLISA immunoassay kit according to the instructions of the supplier (PerkinElmer) as described [38].

[10] = system: iPSC-derived cortical neurons (total Aβ); assay: Total Aβ by MSD sandwich immunoassay (2D8/4G8) in iPSC-derived neurons; conditions: WT, heterozygous and homozygous neurons, 3 days; RO7019009 500 nM or 2.5 µM, RO5254601 2.5 µM
Experimental: as §6, §7

[11] = system: γ-secretase in heterozygous WT/L166P iPSC-derived cortical neurons; assay: Secreted Aβ species by immunoassays, heterozygous PS1 L166P KI iPSC-derived neurons; conditions: 3 days, RO7019009 500 nM or 2.5 µM, RO5254601 2.5 µM
Experimental: as §6, §8

[12] = target: γ-secretase in WT iPSC-derived cortical neurons (Homo sapiens, UniProt P49768+P49810); assay: Secreted Aβ species by immunoassays, WT iPSC-derived cortical neurons; conditions: 3 days, RO7019009 500 nM or 2.5 µM, RO5254601 2.5 µM
Experimental: The media was exchanged (NM/DOX) for the next two days. […] On day 6 and 9 cells were fed with NM/DOX complemented with 300 ng/ml puromycin dihydrochloride (puro, VWR, Cat. No. J593). Afterwards, the medium was switched to NM supplemented with 5 μM 5-fluorouracil (5FU, Sigma, Cat. No. F6627) with half feeds to remove the remaining dividing stem and neuron precursor cells. From day 13, cells were grown in NB (Neurobasal, penicillin–streptomycin) with B27 Plus (Thermo Fisher, Cat. No. A3582801) and 5FU. 5FU was removed in the following feeds. The cells were grown until day 24 before treatment started and analysed at day 27.
as §2
Immunoblot analysis of secreted Aβ was performed as described [52]. […] GSM effects on secreted Aβ species in conditioned medium of MEF KI cells or iPSC-derived neurons were either quantified by ELISA using end-specific C-terminal antibodies to Aβ38, Aβ40, Aβ42 and Aβ43 obtained from IBL [16, 53] or MSD sandwich-immunoassay (Aβ37, see above). Total Aβ in conditioned medium of iPSC-derived neurons were measured using MSD sandwich-immunoassay using anti-Aβ antibodies 2D8 (biotinylated, capture) and 4G8 (detection) as described previously [54]. […]

Notch1 cleavage = Notch1 cleavage reporter assay (NICD release), HEK293-based reporter cell line; conditions: dose–response
Experimental: as §3, §4, §5

[13] = target: T3, endogenous γ-secretase in HEK293/sw cells; assay: Aβ dose–response in HEK293/sw cells, MSD sandwich immunoassay
Experimental: as §6, §7

PS1 L166P = target: T4, PS1 L166P (Mus musculus, UniProt P49769, L166P); assay: Photoaffinity labeling with RO6874585, WT or PS1 L166P KI MEF membrane fractions; assay type: binding
T4 construct: crosslinking efficiencies of PS1 NTF and PS1 CTF in WT or PS1 L166P KI MEF cell membranes; endogenous in cells; host or cells: membrane fractions of PS1 L166P knock-in MEF cells
Experimental: as §1

[14] = read-out: Aβ42 IC50 [nM ± SD], H4/sw cells, over-night incubation, Aβ42-AlphaLisa, 4–7 independent experiments

## COc1cc(Nc2nc(Cc3ccc(Cl)cc3)cc(C(C)(C)O)n2)ccc1-n1cnc(C)c1 [RO-02, reference compound]
[1]
  Aβ38 level in treated cells, % of total Aβ: 6–8%
[2]
  IC50: 20.5 ± 4.38 nM
[3]
  Aβ40 (gel): strong reduction of Aβ40
  Short species Aβ37 and Aβ38 (gel): increase of both short species, Aβ37 and Aβ38
[4]
  Aβ40 (gel): strong reduction of Aβ40
[4]; heterozygous KI MEF
  Short species Aβ37 and Aβ38 (gel): increase of both short species, Aβ37 and Aβ38
PS1 and PS2 NTF and CTF
  Competition of RO6874585 crosslinking to presenilin: did not or only weakly compete binding
[5]
  IC50: ~15 nM and 15 nM
[6]; GSM-1 2.5 µM, RO-02 500 nM, one range given for both compounds and both 'other genotypes'
  Aβ38 level in treated cells, % of total Aβ: 30–60%
[7]
  Aβ38 level in treated cells, % of total Aβ: 30–60%

## Cc1nsc(N2CC3CCC(C2)C3Nc2nc3c(-c4ccc(F)c(F)c4F)cccn3n2)n1 (stereo not drawn) [RO7019009]
brain-derived cell lines
  IC50: ≥ 2 nM
[8]; RO7019009 500 nM
  Aβ38 (gel): increased generation of Aβ38
  Processivity: ratio of shorter Aβ37/38 combined with Aβ40 to longer Aβ42/43 species: increased processivity
[2]
  IC50: 3.76 ± 0.6 nM
[3]
  Aβ40 (gel): strong reduction of Aβ40
  Short species Aβ37 and Aβ38 (gel): increase of both short species, Aβ37 and Aβ38
[9]; RO7019009 500 nM or 2.5 µM
  Effect on Aβ species profile: efficiently reduced not only Aβ40 but also Aβ43 and, especially at higher concentrations, Aβ42
[4]
  Aβ40 (gel): strong reduction of Aβ40
[4]; heterozygous KI MEF, RO7019009 500 nM
  Processivity: ratio of shorter Aβ37/38 combined with Aβ40 to longer Aβ42/43 species: increased processivity
[4]; heterozygous KI MEF
  Short species Aβ37 and Aβ38 (gel): increase of both short species, Aβ37 and Aβ38
[10]
  Total Aβ levels: without affecting total Aβ levels
PS1 and PS2 NTF and CTF
  Competition of RO6874585 crosslinking to presenilin: differential competition for NTF and CTF binding
[5]
  IC50: ~14 nM and 14 nM
[11]
  Secreted Aβ42: reduced both Aβ42 and Aβ43
  Secreted Aβ43: reduced both Aβ42 and Aβ43
[6]; 24 h, BPN-15606 360 nM
  Secreted Aβ38: strongly increased Aβ38
[7]
  Combined pathogenic species (Aβ42 + Aβ43): effective lowering of the generation of total pathogenic Aβ42/43 species
  Secreted Aβ43: only potently effective compound in lowering Aβ43
[12]
  Effect on Aβ species profile: reduced Aβ40 and Aβ42 while increasing both shorter species Aβ37 and Aβ38

## C[C@H](NC(=O)Cc1cc(F)cc(F)c1)C(=O)N[C@@H]1C(=O)N(C)c2ccccc2-c2ccccc21 [DBZ, dibenzazepine, reference compound]
[2]; [14]
  IC50: 0.33 ± 0.01 nM
Notch1 cleavage
  Notch1 cleavage / NICD release: reduced the levels of the Notch1 intracellular domain

## COc1nc(-c2cc(C)c(N[C@@H](C)c3ccc(F)cc3)nn2)ccc1-n1cnc(C)c1 [BPN-15606, reference compound]
[8]; BPN-15606 500 nM
  Aβ43 (gel): strong reduction of Aβ43
[2]
  IC50: 16.9 ± 8.22 nM
[3]
  Aβ40 (gel): strong reduction of Aβ40
  Short species Aβ37 and Aβ38 (gel): increase of both short species, Aβ37 and Aβ38
[4]
  Aβ40 (gel): strong reduction of Aβ40
[13]; IC50 (Aβ42), 16–18 h, MSD sandwich immunoassay, this study
  IC50: ~12 nM and 12 nM
[6]; 24 h, BPN-15606 360 nM
  Secreted Aβ42: reduced Aβ42 levels
  Secreted Aβ38: increase of Aβ38

## CC(C)N1CCC(Oc2ccc3[nH]c(C(=O)Nc4ccc(F)c(F)c4)cc3c2)C1 (stereo not drawn) [RO5218863]
[2]; [14]
  IC50: 229 ± 69.8 nM
PS1 and PS2 NTF and CTF
  Competition of RO6874585 crosslinking to presenilin: competed with presenilin binding

## CC(C)CCC(c1ccc(Cl)cc1)N1CCC(CC(=O)O)CC1c1ccc(C(F)(F)F)cc1 (stereo not drawn) [GSM-1, reference compound]
PS1 and PS2 NTF and CTF
  Competition of RO6874585 crosslinking to presenilin: did not or only weakly compete binding
[7]
  Aβ38 level in treated cells, % of total Aβ: 30–60%

## O=C(CCCC[C@@H]1SC[C@@H]2NC(=O)N[C@@H]21)NCCOCCOCCOCCNC(=O)COc1ccc(C(=O)c2ccc(OCC(=O)N3CC[C@@H](Oc4ccc5[nH]c(C(=O)Nc6ccc(F)c(F)c6)cc5c4)C3)cc2)cc1 [RO6874585]
[2]; H4/sw cells
  Aβ42 lowering: lowering Aβ42
[2]; [14]
  IC50: 128 ± 44.7 nM
PS1 and PS2 NTF and CTF; UV crosslinking, streptavidin pull-down, immunoblot
  Proteins labeled by photoaffinity probe: PS1 and PS2 NTF and CTF as specific targets
PS1 L166P
  Photoaffinity labeling of PS1 L166P versus WT: without apparent differences to the WT
Notch1 cleavage
  Notch1 cleavage / NICD release: without inhibiting Notch1 processing

## CC(C)N1CCCC(c2ccc3[nH]c(C(=O)Nc4cccc(F)c4)cc3c2)C1 (stereo not drawn) [RO5218165]
[2]; [14]
  IC50: 207 ± 32.4 nM
PS1 and PS2 NTF and CTF
  Competition of RO6874585 crosslinking to presenilin: differential competition for NTF and CTF binding

## CC(=O)N1CCCC(c2ccc3[nH]c(C(=O)Nc4cc(F)cc(F)c4)cc3c2)C1 (stereo not drawn) [RO5254601]
[8]; RO5254601 2.5 µM
  Aβ42 (gel): markedly lowering Aβ42
[2]
  IC50: 63.3 ± 24.1 nM
[3]
  Aβ40 (gel): little effect on Aβ40
[9]; RO5254601 2.5 µM
  Long species (Aβ42 + Aβ43), overall fraction / sum: not reduced; also recorded: barely reduced the sum of long Aβ42 and Aβ43 species
[4]
  Aβ40 (gel): little effect on Aβ40
[10]
  Total Aβ levels: without affecting total Aβ levels
PS1 and PS2 NTF and CTF
  Competition of RO6874585 crosslinking to presenilin: competed with presenilin binding of RO6874585
[13]; dose–response
  Aβ37 production: increased Aβ37
  Aβ38 production: increased the production of Aβ38
  Aβ40 production: largely unaffected
[11]
  Secreted Aβ42: reduced only Aβ42
  Secreted Aβ43: had no effect on Aβ43
Notch1 cleavage
  Notch1 cleavage / NICD release: did not impair Notch1 cleavage
[7]
  Combined pathogenic species (Aβ42 + Aβ43): lower the ratio of combined pathogenic species
  Secreted Aβ43: could not lower Aβ43
[12]
  Effect on Aβ species profile: primarily acted on Aβ42 and Aβ38
